Data as given in ChEMBL document CHEMBL1147325, “13C-nmr spectral assignment and evaluation of the cytotoxic potential of rotenone” (1989).
≈ marks a conversion by molar mass, not a printed value.

Key:
Format in all cases: functional
[1] = Cytotoxicity against human BC1 cells after 72 hrs; settings: BC1, 72 h, read-out: ED50 (the source's name)
[2] = tested on: Col2; assay: Cytotoxicity against human Col2 cells after 72 hrs; settings: Col2, 72 h, read-out: ED50 (the source's name)
[3] = tested on: HT-1080; assay: Cytotoxicity against human HT1080 cells after 48 hrs; settings: HT-1080, 48 h, read-out: ED50 (the source's name)
[4] = tested on: Lu1; assay: Cytotoxicity against human Lu1 cells; settings: read-out: ED50 (the source's name)
[5] = tested on: SK-MEL-2; assay: Cytotoxicity against human SK-MEL-2 cells after 72 hrs; settings: SK-MEL-2, 72 h, read-out: ED50 (the source's name)
[6] = tested on: KB; assay: Cytotoxicity against human KB cells after 72 hrs; settings: read-out: ED50 (the source's name)
[7] = tested on: P388; assay: Cytotoxicity against mouse P388 cells after 48 hrs; settings: P388, 48 h, read-out: ED50 (the source's name)

C=C(C)[C@H]1Cc2c(ccc3c2O[C@@H]2COc4cc(OC)c(OC)cc4[C@@H]2C3=O)O1 [ROTENONE]
EC50 [1]: 0.039 µg/mL (≈ 0.0989 µM) | EC50 [2]: 0.15 µg/mL (≈ 0.38 µM) | EC50 [3]: 0.047 µg/mL (≈ 0.119 µM) | EC50 [4]: 0.044 µg/mL (≈ 0.112 µM) | EC50 [5]: 0.092 µg/mL (≈ 0.233 µM) | EC50 [6]: 0.067 µg/mL (≈ 0.17 µM) | EC50 [7]: 0.005 µg/mL (≈ 0.0127 µM)
